Measured values reported in patent publication US12226405B2, “Compounds and compositions for inhibiting the activity of HIF2-alpha and their methods of use” (Novartis AG, priority 2020, dated 2025).
Like-named read-outs stand apart in the source and are kept apart here.

Key:
[1] = target: T1, HIF2α PAS-B domain (236-350, biotinylated on the N-terminus) (Homo sapiens (Human), UniProt Q99814); assay: biochemical
Protocol: (§1) The assay buffer contained 50 mM Tris-HCl pH7 (Sigma), 20 mM NaCl (Fluka), 0.02% BSA (Sigma), 0.005% Triton X-100 (Pierce) and 1 mM DTT (Fluka). After a 30 min incubation period, 5 μL Streptavidin PVT SPA Beads (Perkin Elmer) at 1.2 mg/mL, diluted in the buffer, were added.

[2] = test system: HIF2α-dependent transcription in 786-O-HRE-Luc cells; assay: In vitro cellular hypoxia response element (HRE) reporter gene assay (RGA) for HIF2α; assay type: cell-based, human; conditions: Homo sapiens, 24 hours incubation
Outline: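 Renal carcinoma cells carrying a 4×HRE-driven PEST-destabilised firefly luciferase were treated a day after seeding with eleven 2-fold compound dilutions (0.1% DMSO) for 24 h at 37° C. BrightGlo luminescence, background-subtracted and expressed as % of DMSO control, was fitted four-parametrically for IC50.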

[3] = test system: HIF2α-regulated expression of the endogenous target gene hEGLN3 in 786-O cells; assay: Cellular iScript assay for HIF2α (quantitative RT-PCR of hEGLN3); assay type: cell-based, human; conditions: Homo sapiens, 786-0, 48 hours incubation
Outline: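 786-O cells were exposed to eleven 2-fold compound dilutions for 48 h at 37° C. Lysates underwent one-step TaqMan qRT-PCR for hEGLN3 with beta-actin as reference; 2^(−ΔΔCt) versus DMSO, as % of control, was fit with a four-parameter model to give IC50.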

[4] = target: T1, HIF2α PAS-B domain (236-350, biotinylated on the N-terminus)
Protocol: as §1

T1 sequence (Q99814 236-350): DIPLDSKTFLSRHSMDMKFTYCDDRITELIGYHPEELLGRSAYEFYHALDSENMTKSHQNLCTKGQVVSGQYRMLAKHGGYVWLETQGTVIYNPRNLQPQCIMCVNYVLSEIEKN

Row | SMILES | IC50 [1] | IC50 [2] | IC50 [3] | IC50 [4]
1 | FC1=CC(C(F)(F)F)=CN2CC3(CCCc4c3ccc(F)c4F)N=C12 (racemic) [Example 78, rac-5′,6′,8-trifluoro-6-(trifluoromethyl)-3′,4′-dihydro-2′H,3H-spiro[imidazo[1,2-a]pyridine-2,1′-naphthalene]] | 0.008 µM | 4.23 µM | 0.161 µM | –
2 | FC(F)OC1=CC(C(F)(F)F)=CN2CC3(CCCc4c(Br)cccc43)N=C12 (racemic) [Example 81, rac-5′-bromo-8-(difluoromethoxy)-6-(trifluoromethyl)-3′,4′-dihydro-2′H,3H-spiro[imidazo[1,2-a]pyridine-2,1′-naphthalene]] | ≤ 0.01 µM | 0.143 µM | 0.057 µM | –
3 | FC(F)OC1=CC(C(F)(F)F)=CN2CC3(CCCc4cnccc43)N=C12 (racemic) [Example 93, rac-8-(difluoromethoxy)-6-(trifluoromethyl)-7′,8′-dihydro-3H,6′H-spiro[imidazo[1,2-a]pyridine-2,5′-isoquinoline]] | 0.012 µM | – | 0.178 µM | –
4 | Fc1cccc2c1OC[C@H](F)[C@@]21CN2C=C(C(F)(F)F)C=C(OC(F)F)C2=N1 (racemic) [Example 101, rac-8′-(difluoromethoxy)-3,8-difluoro-6′-(trifluoromethyl)-3′H-spiro[chromane-4,2′-imidazo[1,2-a]pyridine]] | 0.015 µM | – | 0.149 µM | –
5 | Fc1c(C(F)(F)F)ccc2c1COCC21CN2C=C(C(F)(F)F)C=C(OC(F)F)C2=N1 (racemic) [Example 108, rac-8-(difluoromethoxy)-8′-fluoro-6,7′-bis(trifluoromethyl)-3H-spiro[imidazo[1,2-a]pyridine-2,4′-isochroman]] | 0.029 µM | 0.692 µM | 0.156 µM | –
6 | FC(F)OC1=CC(C(F)(F)F)=CN2CC3(CCCOc4c(Cl)cccc43)N=C12 (racemic) [Example 118, rac-9-chloro-8′-(difluoromethoxy)-6′-(trifluoromethyl)-3,4-dihydro-2H,3′H-spiro[benzo[b]oxepine-5,2′-imidazo[1,2-a]pyridine]] | 0.016 µM | 1.03 µM | 0.161 µM | –
7 | FC(F)OC1=CC(C(F)(F)F)=CN2C[C@]3(CCOc4cc(C(F)(F)F)ccc43)N=C12 [(R)-8′-(difluoromethoxy)-6′,7-bis(trifluoromethyl)-3′H-spiro[chroman-4,2′-imidazo[1,2-a]pyridine]] | > 10 µM | – | – | –
8 | Fc1c(Br)ccc2c1CC[C@@]21CN2C=C(C(F)(F)F)C=C(OC(F)F)C2=N1 [Example 1, (S)-5′-bromo-8-(difluoromethoxy)-4′-fluoro-6-(trifluoromethyl)-2′,3′-dihydro-3H-spiro[imidazo[1,2-a]pyridine-2,1′-indene]] | ≤ 0.003 µM | 0.232 µM | 0.065 µM | –
9 | O[C@H]1c2c(ccc(Br)c2F)[C@]2(CN3C=C(C(F)(F)F)C=C(OC(F)F)C3=N2)CC1(F)F [Example 18, (1′S,4'S)-6′-bromo-8-(difluoromethoxy)-3′,3′,5′-trifluoro-6-(trifluoromethyl)-3′,4′-dihydro-2′H,3H-spiro[imidazo[1,2-a]pyridine-2,1′-naphthalen]-4′-ol] | 0.006 µM | 0.092 µM | 0.037 µM | –
10 | N#Cc1ccc2c(c1Cl)OCC[C@@]21CN2C=C(C(F)(F)F)C=C(OC(F)F)C2=N1 [Example 96, (S)-8-chloro-8′-(difluoromethoxy)-6′-(trifluoromethyl)-3′H-spiro[chromane-4,2′-imidazo[1,2-a]pyridine]-7-carbonitrile] | – | 0.518 µM | 0.199 µM | 0.032 µM
11 | Fc1c(Cl)ccc2c1OC[C@H](F)[C@@]21CN2C=C(C(F)(F)F)C=C(OC(F)F)C2=N1 [Example 97, (3R,4S)-7-chloro-8′-(difluoromethoxy)-3,8-difluoro-6′-(trifluoromethyl)-3′H-spiro[chromane-4,2′-imidazo[1,2-a]pyridine]] | – | 0.193 µM | 0.057 µM | 0.011 µM
12 | Fc1ccc2c(c1F)OC[C@H](F)[C@@]21CN2C=C(C(F)(F)F)C=C(OC(F)F)C2=N1 [Example 98, (3R,4S)-8′-(difluoromethoxy)-3,7,8-trifluoro-6′-(trifluoromethyl)-3′H-spiro[chromane-4,2′-imidazo[1,2-a]pyridine]] | – | 0.12 µM | 0.104 µM | 0.017 µM
13 | CSc1ccc2c(c1F)OCC[C@@]21CN2C=C(C(F)(F)F)C=C(OC(F)F)C2=N1 [Example 99, (S)-8′-(difluoromethoxy)-8-fluoro-7-(methylthio)-6′-(trifluoromethyl)-3′H-spiro[chromane-4,2′-imidazo[1,2-a]pyridine]] | – | 0.286 µM | 0.071 µM | 0.01 µM
14 | FC(F)OC1=CC(C(F)(F)F)=CN2C[C@@]3(CCOc4c3ccc(Br)c4Cl)N=C12 [Example 100, (S)-7-bromo-8-chloro-8′-(difluoromethoxy)-6′-(trifluoromethyl)-3′H-spiro[chromane-4,2′-imidazo[1,2-a]pyridine]] | – | 0.106 µM | 0.063 µM | 0.004 µM
15 | FC(F)OC1=CC(C(F)(F)F)=CN2C[C@@]3(CCOc4c3ccc(Br)c4Br)N=C12 [Example 102, (S)-7,8-dibromo-8′-(difluoromethoxy)-6′-(trifluoromethyl)-3′ H-spiro[chromane-4,2′-imidazo[1,2-a]pyridine]] | – | 0.066 µM | 0.048 µM | 0.011 µM
16 | COc1ccc2c(c1F)OCC[C@@]21CN2C=C(C(F)(F)F)C=C(OC(F)F)C2=N1 [Example 103, (S)-8′-(difluoromethoxy)-8-fluoro-7-methoxy-6′-(trifluoromethyl)-3′H-spiro[chromane-4,2′-imidazo[1,2-a]pyridine]] | – | 0.417 µM | 0.109 µM | 0.042 µM
17 | FC(F)OC1=CC(C(F)(F)F)=CN2C[C@@]3(CCOc4c(C(F)(F)F)cccc43)N=C12 [Example 104, (S)-8′-(difluoromethoxy)-6′,8-bis(trifluoromethyl)-3′H-spiro[chromane-4,2′-imidazo[1,2-a]pyridine]] | – | 0.624 µM | 0.118 µM | ≤ 0.005 µM
18 | Fc1c(OC(F)(F)F)ccc2c1OCC[C@@]21CN2C=C(C(F)(F)F)C=C(OC(F)F)C2=N1 [Example 105, (S)-8′-(difluoromethoxy)-8-fluoro-7-(trifluoromethoxy)-6′-(trifluoromethyl)-3′H-spiro[chromane-4,2′-imidazo[1,2-a]pyridine]] | – | 0.248 µM | 0.183 µM | 0.021 µM
19 | Fc1c(SC(F)F)ccc2c1OCC[C@@]21CN2C=C(C(F)(F)F)C=C(OC(F)F)C2=N1 [Example 106, (S)-8′-(difluoromethoxy)-7-((difluoromethyl)thio)-8-fluoro-6′-(trifluoromethyl)-3′H-spiro[chromane-4,2′-imidazo[1,2-a]pyridine]] | – | 0.148 µM | 0.081 µM | 0.01 µM
20 | FC(F)OC1=CC(C(F)(F)F)=CN2C[C@@]3(CCOc4c(Br)cccc43)N=C12 [Example 107, (S)-8-bromo-8′-(difluoromethoxy)-6′-(trifluoromethyl)-3′H-spiro[chromane-4,2′-imidazo[1,2-a]pyridine]] | – | 0.807 µM | 0.189 µM | 0.007 µM
21 | [2H]C1C([2H])([2H])Sc2c(F)cccc2[C@]12CN1C=C(C#N)C=C(OC(F)F)C1=N2 (stereo partly drawn) [Example 109, (2S)-8-(difluoromethoxy)-8′-fluoro-3H-spiro[imidazo[1,2-a]pyridine-2,4′-thiochromane]-6-carbonitrile-2′,2′,3′-d3] | – | 0.09 µM | 0.042 µM | 0.004 µM
22 | N#Cc1ccc2c(c1F)SCC[C@@]21CN2C=C(C(F)(F)F)C=C(OC(F)F)C2=N1 [Example 111, (S)-8-(difluoromethoxy)-8′-fluoro-6-(trifluoromethyl)-3H-spiro[imidazo[1,2-a]pyridine-2,4′-thiochromane]-7′-carbonitrile] | – | 0.1 µM | 0.043 µM | 0.009 µM
23 | N#CC1=CN2C[C@@]3(CCSc4c3ccc(F)c4F)N=C2C(OC(F)F)=C1 [Example 112, (S)-8-(difluoromethoxy)-7′,8′-difluoro-3H-spiro[imidazo[1,2-a]pyridine-2,4′-thiochromane]-6-carbonitrile] | – | 0.116 µM | 0.041 µM | 0.007 µM
24 | FCOC1=CC(C(F)(F)F)=CN2C[C@@]3(CCSc4c3cnc(C(F)(F)F)c4F)N=C12 [Example 114, (S)-8′-fluoro-8-(fluoromethoxy)-6,7′-bis(trifluoromethyl)-2′,3′-dihydro-3H-spiro[imidazo[1,2-a]pyridine-2,4′-thiopyrano[3,2-c]pyridine]] | – | 0.356 µM | 0.084 µM | 0.042 µM
25 | Fc1ccc2c(c1F)OCCC[C@@]21CN2C=C(C(F)(F)F)C=C(OC(F)F)C2=N1 [Example 117, (S)-8′-(difluoromethoxy)-8,9-difluoro-6′-(trifluoromethyl)-3,4-dihydro-2H,3′H-spiro[benzo[b]oxepine-5,2′-imidazo[1,2-a]pyridine]] | – | 0.281 µM | 0.024 µM | ≤ 0.004 µM
26 | Fc1c(Cl)ccc2c1COCC[C@@]21CN2C=C(C(F)(F)F)C=C(OC(F)F)C2=N1 [Example 119, (S)-8-chloro-8′-(difluoromethoxy)-9-fluoro-6′-(trifluoromethyl)-3,4-dihydro-1H,3′H-spiro[benzo[c]oxepine-5,2′-imidazo[1,2-a]pyridine]] | – | 0.292 µM | 0.097 µM | 0.019 µM
